Assay results from ChEMBL document CHEMBL6103545, “Discovery of GS-2278, a Potent and Selective LPAR1 Antagonist for the Treatment of Idiopathic Pulmonary Fibrosis” (J Med Chem, 2025).

What was measured:
[1] = target: Lysophosphatidic acid receptor 1 (Homo sapiens, UniProt Q92633); assay: Antagonist activity at human LPA1 receptor expressed in HEK293 cells assessed as Galpha15 effector recruitment incubated for 10 mins by BRET assay; type: functional, cell-based
BCRP (human) = assay: Apparent permeability from basolateral to apical side of human BCRP transfected MDCK cells measured after 20 min by LC/MS/MS analysis; type: ADME, cell-based, Canis lupus familiaris; settings: dog
[2] = target: T1, Solute carrier organic anion transporter family member 1B3 (Homo sapiens, UniProt Q9NPD5); assay: Inhibition of OATPB1P3 in human hepatocyte by LC-MS analysis; type: cell-based
T1 sequence (Q9NPD5 whole entry): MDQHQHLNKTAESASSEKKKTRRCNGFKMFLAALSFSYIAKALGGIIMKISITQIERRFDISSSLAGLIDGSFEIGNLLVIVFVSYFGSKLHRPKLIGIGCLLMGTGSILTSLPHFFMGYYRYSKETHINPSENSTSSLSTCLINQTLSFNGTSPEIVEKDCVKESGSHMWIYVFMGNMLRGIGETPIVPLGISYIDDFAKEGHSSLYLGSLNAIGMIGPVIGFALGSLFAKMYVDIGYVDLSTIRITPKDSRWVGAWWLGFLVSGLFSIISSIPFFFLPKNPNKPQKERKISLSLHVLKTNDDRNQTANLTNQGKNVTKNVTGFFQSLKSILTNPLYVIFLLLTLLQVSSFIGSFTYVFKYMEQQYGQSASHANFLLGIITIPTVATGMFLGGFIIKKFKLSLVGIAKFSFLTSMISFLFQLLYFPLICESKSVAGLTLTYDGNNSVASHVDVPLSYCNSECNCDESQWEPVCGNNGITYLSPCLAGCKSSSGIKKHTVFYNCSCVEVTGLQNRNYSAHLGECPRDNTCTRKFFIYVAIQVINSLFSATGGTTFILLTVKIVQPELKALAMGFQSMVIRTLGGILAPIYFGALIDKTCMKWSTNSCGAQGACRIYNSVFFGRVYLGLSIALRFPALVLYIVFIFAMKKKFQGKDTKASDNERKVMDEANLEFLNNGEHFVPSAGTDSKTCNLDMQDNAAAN

Cytochrome P450 2C8 = target: T2, Cytochrome P450 2C8 (Homo sapiens, UniProt P10632); assay: Inhibition of CYP2C8 (unknown origin) using midazolam as substrate; type: ADME
T2 sequence (P10632 whole entry): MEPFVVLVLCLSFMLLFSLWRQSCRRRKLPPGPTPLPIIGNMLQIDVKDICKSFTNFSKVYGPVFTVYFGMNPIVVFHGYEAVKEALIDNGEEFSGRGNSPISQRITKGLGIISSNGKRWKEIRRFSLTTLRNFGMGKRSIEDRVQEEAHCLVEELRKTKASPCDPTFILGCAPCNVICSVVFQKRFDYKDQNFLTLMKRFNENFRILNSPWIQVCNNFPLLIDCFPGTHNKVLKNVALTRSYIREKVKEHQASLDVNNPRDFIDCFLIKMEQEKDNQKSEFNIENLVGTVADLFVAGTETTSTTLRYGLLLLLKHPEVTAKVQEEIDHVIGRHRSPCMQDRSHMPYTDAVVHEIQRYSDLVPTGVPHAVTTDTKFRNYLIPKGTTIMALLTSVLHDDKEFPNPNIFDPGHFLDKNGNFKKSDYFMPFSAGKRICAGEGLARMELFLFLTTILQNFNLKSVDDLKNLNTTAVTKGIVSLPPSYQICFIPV

Cytochrome P450 3A = Cytochrome P450 3A (Homo sapiens, UniProt P08684+P20815+Q9HB55+P24462); assay: Inhibition of CYP3A (unknown origin) using midazolam as substrate; type: ADME, protein assay
[3] = Toxicity in Beagle dog CNS at 10 mg/kg/day, po measured after 28 days by radiotelemetry; type: organism-based, Canis lupus familiaris; settings: in vivo, 672 h, time 28 day

Lysophosphatidic acid receptor 1, sequence (Q92633 whole entry): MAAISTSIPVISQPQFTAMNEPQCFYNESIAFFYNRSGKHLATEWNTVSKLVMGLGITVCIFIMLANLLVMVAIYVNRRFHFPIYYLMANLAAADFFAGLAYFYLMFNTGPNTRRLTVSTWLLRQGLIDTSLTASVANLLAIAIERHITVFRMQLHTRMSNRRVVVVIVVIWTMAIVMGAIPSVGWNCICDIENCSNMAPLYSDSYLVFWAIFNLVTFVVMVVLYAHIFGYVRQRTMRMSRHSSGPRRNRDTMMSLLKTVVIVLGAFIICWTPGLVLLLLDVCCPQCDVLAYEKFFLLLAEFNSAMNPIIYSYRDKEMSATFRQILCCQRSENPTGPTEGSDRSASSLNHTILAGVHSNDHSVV

Work on `C[C@@H](OC(=O)Nc1c(-c2ccc(NC(=O)c3cnc(C(F)(F)F)nc3)cn2)nnn1C)c1cc(F)cnc1F` yielded an EC50 [1] of 0.0461 µM, a Papp B→A at 20 min (BCRP (human)) of 12 ×10⁻⁶ cm/s and an IC50 [2] of 15 µM. The “inhibition (INH)” value (Cytochrome P450 2C8) was “Not_active”, the “inhibition (INH)” value (Cytochrome P450 3A) was “Not_active” and the Activity [3] was “Non-toxic”.
